Results: patent publication US10864212B2, “Compositions and methods for treating retinal degradation” (University of Kentucky Research Foundation, priority 2013, dated 2020)
Entries after “also recorded” stand apart in the source; their conditions may differ.

Key:
RPE degeneration = RPE degeneration in mice after sub-retinal injection of a plasmid expressing Alu RNA, systemic drug administration; type: in vivo, mouse; details: daily oral administration of d4T, FIG. 36
Description: FIG. 24, top row, provides flat mounts stained for zonula occludens-1 (ZO-1; red), bottom row. Degeneration is outlined if FIG. 24 by blue arrowheads. Representative images of n=4 are shown.
FIG. 36 and FIG. 37 include fundus photographs: top row; flat mounts stained for zonula occludens-1 (ZO-1; red), bottom row. Degeneration is outlined by blue arrowheads. Scale bars, 50 μm.

IRAK4 [1] = assay: LPS/ATP-induced IRAK4 phosphorylation in primary human RPE cells; type: cell-based; details: d4T 25/100 uM, FIG. 8
Description: (§1) Vinculin was used as the loading control in the gel of FIG. 8. Additionally, as shown, LPS and ATP activate the NLRP3 inflammasome only in combination.
(§2) The loading control in FIG. 8 is vinculin. Furthermore, as shown, LPS and ATP activate the NLRP3 inflammasome only in combination, thus treatment with one or the other alone is useful as a control for this experiment.

IL-18 = assay: LPS/ATP-induced IL-18 maturation in mouse bone marrow-derived macrophages (Western blot); type: cell-based; details: supernatants, 100 uM, FIG. 9
Description: To produce FIG. 9, cell culture supernatants were collected after (i) no treatment, (ii) LPS treatment, or (iii) LPS/ATP treatment of mouse bone marrow-derived macrophages and run on Western blotting probing with antibodies for Caspase-1 and IL-18.

IL-1 beta = assay: LPS/nigericin-induced IL-1 beta maturation in mouse bone marrow-derived macrophages (Western blot); type: cell-based; details: d4T 100, 250 uM, FIG. 10
Description: (§3) To produce FIG. 10, cell culture supernatants were collected after (i) no treatment, (ii) LPS treatment, or (iii) LPS/nigericin treatment of mouse bone marrow-derived macrophages and run on Western blotting probing with antibodies for IL-1 beta and Caspase-1.
(§4) Cell culture supernatants were collected after (i) no treatment, (ii) LPS treatment, or (iii) LPS/nigericin treatment of mouse bone marrow-derived macrophages, and run on Western blotting probing with antibodies for IL-1 beta and Caspase-1.

[2] = system: extracellular potassium levels; assay: Extracellular potassium levels after Alu RNA transfection of primary human RPE cells (pyruvate kinase assay); type: cell-based; details: primary human RPE cells treated with Alu RNA for 6 hours; FIG. 18
Experimental: Potassium levels were determined in cell culture supernatants spectrophotometrically using a potassium-dependent pyruvate kinase assay.
For FIG. 18, potassium levels were determined in cell culture supernatants spectrophotometrically using a potassium-dependent pyruvate kinase assay.

Caspase-1 [3] = assay: Western blot of Caspase-1 activation in primary human RPE cells transfected with Alu RNA; type: cell-based
Experimental: The bottom row is a vinculin loading control. […]
FIG. 7 is a Western blot showing that Alu RNA causes Caspase-1 maturation in primary human RPE cells at 24 hours after Alu administration (top, middle lane, lower band), which is blocked with co-treatment with azidothymidine (AZT), cordycepin, and abacavir (ABC) (50-100 uM; lanes 3-8 from left). The loading control vinculin is shown on the bottom.
FIG. 21 is a Western blot of Caspase-1 activation (p20 subunit) in primary human RPE cells transfected with Alu RNA±me-d4T.
FIG. 35 is a Western blot of Caspase-1 activation in human RPE cells transfected with Alu RNA±NRTIs (3TC, AZT, ABC).
The bottom row in FIG. 5 is a vinculin loading control. […]
Next, FIG. 7 provides evidence of AZT, cordycepin, and abacavir inhibition of inflammasome activation by Alu RNA. Indeed, Alu RNA causes NLRP3 inflammasome activation, which is marked by processing of the enzyme Caspase 1. FIG. 7 is a Western blot showing that Alu RNA causes Caspase-1 maturation in primary human RPE cells at 24 hours after Alu administration (top, lane 2, lower band), which is blocked with co-treatment with azidothymidine (AZT), cordycepin, and abacavir (ABC) (50-100 uM; Lanes 3-8). Again, the loading control vinculin is shown on the bottom.

NLRP3 mRNA = assay: NLRP3 priming (mRNA) induced by Alu RNA in primary human RPE cells; type: cell-based; details: Alu RNA transfection, 16 hours, d4T 100 uM, FIG. 13
Experimental: Indeed, as provided in the bar graph of FIG. 13, Alu RNA transfection increases NLRP3 mRNA levels in primary human RPE cells at 16 hours, an event termed “priming” (Y-axis) compared to mock (transfection reagent alone).

IRAK4 [4] = assay: Western blot of IRAK4 phosphorylation in primary human RPE cells transfected with Alu RNA; type: cell-based; details: FIG. 34
Description: Alu RNA mediates RPE cell death via activation of Caspase 1 and the NLRP3 inflammasome (Tarallo et al., 2012).

Casp-1 = assay: LPS/ATP-induced Casp-1 activation in primary human RPE cells; type: cell-based; details: d4T 25/100 uM, FIG. 8
Description: as §1, §2

Caspase-1 [5] = assay: LPS/nigericin-induced Caspase-1 activation in mouse bone marrow-derived macrophages (Western blot); type: cell-based; details: d4T 100, 250 uM, FIG. 10
Description: as §3, §4

IL-1 beta mRNA = assay: IL-1beta priming (mRNA) induced by Alu RNA in primary human RPE cells; type: cell-based; details: Alu RNA transfection, 24 hours, d4T 100 uM, FIG. 14
Experimental: FIG. 14 illustrates, in graph format, that Alu RNA transfection increases IL-1 beta mRNA levels in primary human RPE cells at 24 hours, an event termed “priming”, (Y-axis) compared to mock (transfection reagent alone).
FIG. 14 illustrates that Alu RNA transfection increases IL-1 beta mRNA levels in primary human RPE cells at 24 hours, an event termed “priming”, (Y-axis) compared to mock (transfection reagent alone).

IRAK4 [6] = assay: Western blot of IRAK4 phosphorylation in primary mouse RPE cells transfected with Alu RNA; type: cell-based; details: FIG. 44
neutrophil migration = assay: NLRP3- and P2X7-driven model of sterile inflammation (liver injury); type: in vivo
Description: To explore the potential therapeutic relevance of NRTIs beyond the Alu-induced model of geographic atrophy (GA), it was hypothesized that if NRTIs function as generic inflammasome inhibitors, then they might be broadly useful in other animal models of disease that are also driven by P2X7.

human P2X7 receptor = target: T1, human P2X7 receptor (Homo sapiens, UniProt Q99572); assay: Patch clamp analysis of P2X7 cation channel function, HEK293 stable cell line expressing human P2X7 receptor; type: cell-based
T1 construct: expressed in transfected cells
T1 sequence (Q99572 1-595): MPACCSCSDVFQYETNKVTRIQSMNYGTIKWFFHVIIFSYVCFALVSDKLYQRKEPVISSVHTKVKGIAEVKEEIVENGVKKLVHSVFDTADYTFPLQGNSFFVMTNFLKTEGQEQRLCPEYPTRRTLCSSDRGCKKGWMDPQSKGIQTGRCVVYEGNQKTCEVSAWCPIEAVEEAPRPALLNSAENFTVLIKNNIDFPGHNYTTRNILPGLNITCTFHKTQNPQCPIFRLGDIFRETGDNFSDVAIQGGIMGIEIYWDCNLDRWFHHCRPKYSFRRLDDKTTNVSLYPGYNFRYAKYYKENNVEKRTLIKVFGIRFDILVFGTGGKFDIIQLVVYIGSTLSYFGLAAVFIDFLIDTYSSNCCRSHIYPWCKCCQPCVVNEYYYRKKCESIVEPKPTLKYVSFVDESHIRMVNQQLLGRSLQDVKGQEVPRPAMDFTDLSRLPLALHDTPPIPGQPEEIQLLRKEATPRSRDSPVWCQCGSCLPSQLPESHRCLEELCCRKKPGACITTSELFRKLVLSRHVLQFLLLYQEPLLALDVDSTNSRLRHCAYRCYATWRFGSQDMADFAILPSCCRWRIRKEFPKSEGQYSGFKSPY

In the case of `Cc1cn([C@H]2C=C[C@@H](CO)O2)c(=O)[nH]c1=O` [d4T, 2′3′ dideoxythymidine], the “RPE degeneration caused by pAlu” value (RPE degeneration) is reported as “blocked RPE degeneration; also recorded: prevented”, the “IRAK4 phosphorylation induced by LPS/ATP” value (IRAK4 [1]) is reported as “blocks” and the “IL-18 maturation induced by LPS/ATP” value (IL-18) is reported as “inhibit”. For the same compound, the “IL-1 beta maturation (18 and 22 kDa forms) induced by nigericin” value (IL-1 beta) was “inhibits”, the “Extracellular potassium levels after Alu RNA transfection” value [2] was “reduces extracellular potassium levels” and the “Caspase-1 maturation caused by Alu RNA” value (Caspase-1 [3]; 24 hours after Alu administration, d4T 100 uM, FIG. 5) was “blocked”. For the same compound, the “Caspase-1 activation / cleavage (p20) induced by Alu RNA” value (Caspase-1 [3]; concentration not given, FIG. 21, 34, 35, 51-53) was “block Caspase 1 activation by Alu RNA; also recorded: prevents Caspase 1 cleavage to its active 20 kDa form”, the “NLRP3 mRNA levels (priming), normalized to 18S RNA” value (NLRP3 mRNA) was “blunted” and the IRAK4 phosphorylation (IRAK4 [4]) was “blocks phosphorylation of IRAK4”. For the same compound, the “Casp-1 activation induced by LPS/ATP” value (Casp-1) was “blocks”, the “Caspase-1 activation (active p20 band) induced by nigericin” value (Caspase-1 [5]) was “inhibits” and the “IL-1 beta mRNA levels (priming), normalized to 18S RNA” value (IL-1 beta mRNA) was “blunted”. The IRAK4 phosphorylation (IRAK4 [6]) was “blocks phosphorylation of IRAK4”, the “Neutrophil migration to the focus of liver injury” value (neutrophil migration) was “reduced neutrophil migration to the focus of liver injury” and the “P2X7 cation channel function (patch clamp)” value (human P2X7 receptor) was “did not significantly modulate P2X7 cation channel function”.
